This experiment has as its system CD2F1 mice, L1210 leukemia ip, survival T/C. Kind of experiment: NCI In Vivo Anticancer Drug Screen. Data for tumor model L1210 Leukemia (intraperitoneal) in CD2F1 (CDF1) mice. Conditions: higher = longer survival. Put shortly: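 Transplantable tumor in mice; compound-treated vs vehicle-treated groups. Read-out = treated/control ratio of the measured endpoint.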

[1] abbreviates: endpoint: mean survival time, dose: 100.0 mg/kg/injection, schedule: Q04DX003 (ip), vehicle: saline with Tween-80.
Setting [2] is: endpoint: mean survival time, dose: 200.0 mg/kg/injection, schedule: Q04DX003 (ip), vehicle: saline with Tween-80.
The mark [3] stands for this setting: endpoint: mean survival time, dose: 400.0 mg/kg/injection, schedule: Q04DX003 (ip), vehicle: saline with Tween-80.
The mark [4] stands for this setting: endpoint: mean survival time, dose: 100.0 mg/kg/injection, schedule: Q01DX009 (ip), vehicle: saline with Tween-80.
Setting [5] is: endpoint: mean survival time, dose: 200.0 mg/kg/injection, schedule: Q01DX009 (ip), vehicle: saline with Tween-80.
Where [6] appears, read: endpoint: mean survival time, dose: 400.0 mg/kg/injection, schedule: Q01DX009 (ip), vehicle: saline with Tween-80.
The mark [7] stands for this setting: endpoint: mean survival time, dose: 100.0 mg/kg/injection, schedule: Q01DX001 (ip), vehicle: saline with Tween-80.
[8] abbreviates: endpoint: mean survival time, dose: 200.0 mg/kg/injection, schedule: Q01DX001 (ip), vehicle: saline with Tween-80.
Where [9] appears, read: endpoint: mean survival time, dose: 400.0 mg/kg/injection, schedule: Q01DX001 (ip), vehicle: saline with Tween-80.
Where [10] appears, read: endpoint: mean survival time, dose: 100.0 mg/kg/injection, schedule: Q01DX001 (ip), vehicle: saline.
Where [11] appears, read: endpoint: mean survival time, dose: 200.0 mg/kg/injection, schedule: Q01DX001 (ip), vehicle: saline.
Setting [12] is: endpoint: mean survival time, dose: 25.0 mg/kg/injection, schedule: Q01DX001 (ip), vehicle: saline with Tween-80.
[13] abbreviates: endpoint: mean survival time, dose: 50.0 mg/kg/injection, schedule: Q01DX001 (ip), vehicle: saline with Tween-80.
The mark [14] stands for this setting: endpoint: mean survival time, dose: 100.0 mg/kg/injection, schedule: Q04DX002 (ip), vehicle: saline with Tween-80.
[15] abbreviates: endpoint: mean survival time, dose: 200.0 mg/kg/injection, schedule: Q04DX002 (ip), vehicle: saline with Tween-80.
[16] abbreviates: endpoint: mean survival time, dose: 400.0 mg/kg/injection, schedule: Q04DX002 (ip), vehicle: saline with Tween-80.
[17] abbreviates: endpoint: mean survival time, dose: 100.0 mg/kg/injection, schedule: Q01DX009 (ip), vehicle: saline.
The mark [18] stands for this setting: endpoint: mean survival time, dose: 200.0 mg/kg/injection, schedule: Q01DX009 (ip), vehicle: saline.
The mark [19] stands for this setting: endpoint: mean survival time, dose: 400.0 mg/kg/injection, schedule: Q01DX009 (ip), vehicle: saline.
Setting [20] is: endpoint: mean survival time, dose: 50.0 mg/kg/injection, schedule: Q01DX009 (ip), vehicle: saline with Tween-80.
Setting [21] is: endpoint: mean survival time, dose: 100.0 mg/kg/injection, schedule: Q01DX009 (ip), vehicle: other.
[22] abbreviates: endpoint: mean survival time, dose: 50.0 mg/kg/injection, schedule: Q01DX009 (ip), vehicle: saline.

SMILES strings stand for the structures. “And” between values parts separate entries of the source, which are not always exact repeats. Equal values may be shown once. Inconclusive results and toxic doses are left out.

`CC(C)(C)C(=O)CC(=O)C(C)(C)C`: the T/C runs as follows: under setting [1], 95 % of control and 94 % of control; under setting [2], 91 % of control and 100 % of control; under setting [3], 95 % of control.
Consider `CCCCCCCC(=O)Nc1cccc(C)c1C`, for which the T/C runs as follows: under setting [4], 105 % of control; under setting [5], 89 % of control; under setting [6], 104 % of control.
The like results for `COc1ccccc1N/N=C1/CCCNC1=O` were, in that order, 98 % of control, 101 % of control and 95 % of control.
Consider `FC(F)(F)C(F)(F)CI`, for which the T/C runs as follows: under setting [7], 105 % of control; under setting [8], 98 % of control; under setting [9], 94 % of control.
For the compound `NC1(C(=O)O)CCCC1.[Pd]`, the T/C was 100 % of control under setting [10] and 96 % of control under setting [11].
On to `Oc1c(F)c(F)c(-c2c(F)ccc(F)c2F)c(F)c1F`, for which the T/C by setting is: under setting [12], 92 % of control; under setting [13], 102 % of control; under setting [7], 94 % of control.
In the case of `O=C(O)CCC(O)C(=O)O.[NH-]C1CCCCC1[NH-].[Pt+2]` (stereo unspecified), the T/C is, setting by setting: (endpoint: median survival time, dose: 3.12 mg/kg/injection, schedule: Q04DX003 (ip), vehicle: saline) 120 % of control and 110 % of control; (endpoint: median survival time, dose: 6.25 mg/kg/injection, schedule: Q04DX003 (ip), vehicle: saline) 120 % of control; (endpoint: median survival time, dose: 25.0 mg/kg/injection, schedule: Q04DX003 (ip), vehicle: saline) 158 % of control; (endpoint: median survival time, dose: 50.0 mg/kg/injection, schedule: Q04DX003 (ip), vehicle: saline) 170 % of control and 186 % of control; (endpoint: median survival time, dose: 100.0 mg/kg/injection, schedule: Q04DX003 (ip), vehicle: saline) 365 % of control.
Turning to `Nc1ncnc2c1nc(NCc1ccccc1)n2C1OC(CO)C(O)C1O` (stereo unspecified), the T/C is, setting by setting: (endpoint: mean survival time, dose: 12.5 mg/kg/injection, schedule: Q01DX005 (ip), vehicle: distilled water + Tween-80) 93 % of control; (endpoint: mean survival time, dose: 25.0 mg/kg/injection, schedule: Q01DX005 (ip), vehicle: distilled water + Tween-80) 100 % of control and 95 % of control; (endpoint: mean survival time, dose: 50.0 mg/kg/injection, schedule: Q01DX005 (ip), vehicle: distilled water + Tween-80) 92 % of control and 101 % of control; (endpoint: mean survival time, dose: 100.0 mg/kg/injection, schedule: Q01DX005 (ip), vehicle: distilled water + Tween-80) 99 % of control and 93 % of control; (endpoint: mean survival time, dose: 200.0 mg/kg/injection, schedule: Q01DX005 (ip), vehicle: distilled water + Tween-80) 99 % of control and 100 % of control; (endpoint: mean survival time, dose: 400.0 mg/kg/injection, schedule: Q01DX005 (ip), vehicle: distilled water + Tween-80) 89 % of control.
Turning to `O=C(Nc1ccc(Cl)c(Cl)c1)Nc1ccc(Cl)c(Cl)c1` (tested in a mixture with another compound), the T/C runs as follows: under setting [14], 97 % of control; under setting [15], 90 % of control; under setting [16], 97 % of control.
For the compound `Clc1ccc(CN2CN(Cc3ccc(Cl)cc3)CN(Cc3ccc(Cl)cc3)C2)cc1`, the T/C is 95 % of control under setting [4]; 100 % of control under setting [1]; 97 % of control under setting [5]; 97 % of control under setting [2]; 100 % of control under setting [6]; 97 % of control under setting [3].
Take `COC1OCC(O)C(O)C1O` (stereo unspecified): the T/C was 101 % of control under setting [17], 98 % of control under setting [18] and 98 % of control under setting [19].
Regarding `C=Cc1cc[n+](CCCCCC[n+]2ccc(C=C)cc2)cc1`, the T/C is, setting by setting: under setting [10], 92 % of control; under setting [11], 92 % of control; (endpoint: mean survival time, dose: 400.0 mg/kg/injection, schedule: Q01DX001 (ip), vehicle: saline) 88 % of control.
For the compound `CC(=O)OCC#CCOC(C)=O`, the T/C under setting [20] is 93 % of control.
Turning to `N#CCCn1ccc2ccccc21`, the T/C reads like this: under setting [21], 98 % of control; (endpoint: mean survival time, dose: 200.0 mg/kg/injection, schedule: Q01DX009 (ip), vehicle: other) 104 % of control; (endpoint: mean survival time, dose: 400.0 mg/kg/injection, schedule: Q01DX009 (ip), vehicle: other) 98 % of control.
For the compound `CC1=CC(=O)C2(C)C(C)=C(C)C12C` (stereo unspecified), the T/C reads like this: (endpoint: mean survival time, dose: 25.0 mg/kg/injection, schedule: Q01DX009 (ip), vehicle: saline with Tween-80) 104 % of control; under setting [20], 100 % of control; under setting [4], 102 % of control.
With `O/N=C(\CN1CCOCC1)c1ccc(Cl)cc1`, the T/C is, setting by setting: under setting [22], 107 % of control; under setting [17], 96 % of control; under setting [18], 103 % of control.
As to `CCCCCCCCCCCCCCCC(=O)N1CC[N+](C)(CC2=CC3(Cl)C(Cl)=C(Cl)C2(Cl)C3(Cl)Cl)CC1` (stereo unspecified), the T/C (endpoint: mean survival time, dose: 75.0 mg/kg/injection, schedule: Q01DX001 (ip), vehicle: saline) was 93 % of control and the T/C (endpoint: mean survival time, dose: 150.0 mg/kg/injection, schedule: Q01DX001 (ip), vehicle: saline) was 100 % of control.
For `CC(C)(O)C(Cl)(Cl)Cl`, the T/C was 97 % of control under setting [22], 95 % of control under setting [17] and 107 % of control under setting [18].
Turning to `CC(=O)C(C(C)=O)C1=C(Cl)C(=O)c2ccccc2C1=O`, the T/C was 94 % of control (endpoint: mean survival time, dose: 75.0 mg/kg/injection, schedule: Q01DX001 (ip), vehicle: other); 100 % of control (endpoint: mean survival time, dose: 150.0 mg/kg/injection, schedule: Q01DX001 (ip), vehicle: other); 97 % of control (endpoint: mean survival time, dose: 300.0 mg/kg/injection, schedule: Q01DX001 (ip), vehicle: other).
As to `Cc1ccc2nc(-c3ccccc3N)[nH]c2c1`, the T/C was 87 % of control under setting [1], 92 % of control under setting [2] and 89 % of control under setting [3].
Consider `Oc1ccc(CCl)cc1O`, for which the T/C reads like this: under setting [12], 107 % of control; under setting [13], 100 % of control; under setting [7], 89 % of control and 103 % of control.
Regarding `Cc1ccc(C(SCC(N)C(=O)O)(c2ccc(C)cc2)c2ccc(C)cc2)cc1` (stereo unspecified), the T/C runs as follows: under setting [17], 175 % of control; under setting [18], 210 % of control; under setting [19], 200 % of control.
As to `[C-]#[N+]CCS(=O)(=O)CC[N+]#[C-]`, the T/C was 94 % of control under setting [4]; 102 % of control under setting [1]; 94 % of control under setting [5]; 102 % of control under setting [2]; 100 % of control under setting [6]; 89 % of control under setting [3].
Take `COc1cc(/C=N/NC(=O)CN(C)C)cc(OC)c1N(CCCl)CCCl`: the T/C reads like this: (endpoint: mean survival time, dose: 50.0 mg/kg/injection, schedule: Q01DX009 (ip), vehicle: Klucel (hydroxypropylcellulose) (HPC)) 122 % of control; (endpoint: mean survival time, dose: 100.0 mg/kg/injection, schedule: Q01DX009 (ip), vehicle: Klucel (hydroxypropylcellulose) (HPC)) 113 % of control.
`N#CO`: the T/C reads like this: (endpoint: mean survival time, dose: 50.0 mg/kg/injection, schedule: Q01DX009 (ip), vehicle: saline sonified) 100 % of control; (endpoint: mean survival time, dose: 100.0 mg/kg/injection, schedule: Q01DX009 (ip), vehicle: saline sonified) 118 % of control; (endpoint: mean survival time, dose: 100.0 mg/kg/injection, schedule: Q04DX003 (ip), vehicle: saline) 98 % of control; (endpoint: mean survival time, dose: 200.0 mg/kg/injection, schedule: Q04DX003 (ip), vehicle: saline) 112 % of control.
In the case of `CCc1cccc(CC)c1NC(=S)NN`, the T/C (endpoint: mean survival time, dose: 25.0 mg/kg/injection, schedule: Q04DX002 (ip), vehicle: saline with Tween-80) is 104 % of control; the T/C (endpoint: mean survival time, dose: 50.0 mg/kg/injection, schedule: Q04DX002 (ip), vehicle: saline with Tween-80) is 96 % of control; the T/C under setting [14] is 96 % of control.
On to `COc1ccc(OC)c(C(=O)C=C(C(F)(F)F)C(F)(F)F)c1`, for which, under setting [21], the T/C is 113 % of control.
Take `CCOC(=O)c1ccc(NC(=S)NC(=O)c2cccc(Br)c2)cc1`: the T/C is 101 % of control and 112 % of control under setting [7]; 92 % of control and 98 % of control under setting [4]; 93 % of control under setting [14]; 96 % of control under setting [1]; 97 % of control and 101 % of control under setting [8]; 94 % of control and 95 % of control under setting [5]. Moreover, the T/C reads like this: under setting [15], 95 % of control; under setting [2], 98 % of control; under setting [9], 101 % of control; under setting [6], 97 % of control and 106 % of control; under setting [16], 96 % of control; under setting [3], 93 % of control.
Turning to `CCC(CC)C(O)C(C)C(C)O` (stereo unspecified), the T/C is 91 % of control under setting [4], 91 % of control under setting [5] and 91 % of control under setting [6].

Values taken from PubChem BioAssay AID256 (DTP/NCI, 2004).
